Tests used:
AMBEL (Ragweed, Common) = test: Preemergence herbicidal evaluation; format: in vivo, Ambrosia artemisifolia; settings: rated 4-5 weeks after treatment
Method in brief: (§1)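 Sown cups got a single aqueous acetone spray of test compound (roughly 0.0156–0.500 kg/ha) before seedlings emerged. Evaluation, 4–5 weeks on, used a 0–9 visual scale covering plant stand, vigor, size, malformation, chlorosis and general appearance compared with controls.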

ABUTH (Velvetleaf) = test: Preemergence herbicidal evaluation; format: in vivo, Abutilon theophrasti; settings: rated 4-5 weeks after treatment
Method in brief: as §1

[1] = system: SAGPY (Arrowhead (Pygmaea)); test: Postemergence weed control under flooded paddy conditions; format: in vivo, Sagittaria pygmaea; settings: postemergence weeds, 3-4 weeks after treatment
Method in brief: (§2)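 Flood-water application, about 0.0313–0.500 kg/ha a.i. in aqueous/acetone 50/50 v/v; water depth 1.5–3 cm throughout. Weeds 3–5 cm, rice 1.5–2.5 leaf. Greenhouse; 0–9 visual rating vs control at 3–4 wk.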

MOOVA (Monochoria) = test: as above; format: in vivo, Monochoria vaginalis; settings: postemergence weeds, 3-4 weeks after treatment
Method in brief: as §2

[2] = system: GLXMAW (Soybean, Williams); test: Preemergence herbicidal evaluation; format: in vivo, Glycine max, (L.) Merr. cv Williams; settings: rated 4-5 weeks after treatment
Method in brief: as §1

ZEAMX (Corn, Field) = test: Postemergence herbicidal evaluation; format: in vivo, Zea mays; settings: postemergence
Method in brief: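 Young plants, roughly two weeks from seeding, receive the active ingredient as a sprayed dispersion (acetone/water 50/50, 0.5% TWEEN 20) at 40 psi. Doses span about 0.0156 to 0.500 kg/ha. A visual score from 0 to 9 compares treated with control plants four to five weeks on.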

Structure (SMILES)	AMBEL preemergence herbicidal rating (AMBEL (Ragweed, Common); rate 0.0156 kg/ha)	AMBEL preemergence herbicidal rating (AMBEL (Ragweed, Common); rate 0.0313 kg/ha)	AMBEL preemergence herbicidal rating (AMBEL (Ragweed, Common); rate 0.0625 kg/ha)	AMBEL preemergence herbicidal rating (AMBEL (Ragweed, Common); rate 0.1250 kg/ha)	AMBEL preemergence herbicidal rating (AMBEL (Ragweed, Common); rate 0.2500 kg/ha)	ABUTH preemergence herbicidal rating (ABUTH (Velvetleaf); rate 0.0156 kg/ha)	ABUTH preemergence herbicidal rating (ABUTH (Velvetleaf); rate 0.0313 kg/ha)	ABUTH preemergence herbicidal rating (ABUTH (Velvetleaf); rate 0.0625 kg/ha)	ABUTH preemergence herbicidal rating (ABUTH (Velvetleaf); rate 0.1250 kg/ha)	ABUTH preemergence herbicidal rating (ABUTH (Velvetleaf); rate 0.2500 kg/ha)	Herbicidal rating SAGPY ([1]; rate 0.0313 kg/ha)	Herbicidal rating SAGPY ([1]; rate 0.0625 kg/ha)	Herbicidal rating SAGPY ([1]; rate 0.1250 kg/ha)	Herbicidal rating SAGPY ([1]; rate 0.2500 kg/ha)	Herbicidal rating MOOVA (MOOVA (Monochoria); rate 0.0313 kg/ha)	Herbicidal rating MOOVA (MOOVA (Monochoria); rate 0.0625 kg/ha)	Herbicidal rating MOOVA (MOOVA (Monochoria); rate 0.1250 kg/ha)	Herbicidal rating MOOVA (MOOVA (Monochoria); rate 0.2500 kg/ha)	GLXMAW preemergence herbicidal rating ([2]; rate 0.0156 kg/ha)	GLXMAW preemergence herbicidal rating ([2]; rate 0.0313 kg/ha)	further results
CCOC(=O)CN1C(=O)C(CC)SC1=Nc1cc(-n2c(=O)cc(C(F)(F)F)n(C)c2=O)c(F)cc1Cl (stereo not drawn) [Compound 13, Ethyl 2-{{2-chloro-5-[3,6-dihydro-3-methyl-2,6-dioxo-4-(trifluoromethyl)-1(2H)-pyrimidinyl]-4-fluorophenyl}imino}-5-ethyl-4-oxo-3-thiazolidineacetate]	0.0	2.0	6.0	9.0	9.0	6.0	9.0	9.0	9.0	9.0	0.0	0.0	0.0	0.0	9.0	9.0	9.0	9.0	0.0	0.0	GLXMAW preemergence herbicidal rating ([2]; rate 0.0625 kg/ha): 1.0; GLXMAW preemergence herbicidal rating ([2]; rate 0.1250 kg/ha): 2.0; GLXMAW preemergence herbicidal rating ([2]; rate 0.2500 kg/ha): 4.0; ZEAMX herbicidal rating (ZEAMX (Corn, Field); rate 0.0156 kg/ha): 7.0; ZEAMX herbicidal rating (ZEAMX (Corn, Field); rate 0.0313 kg/ha): 7.0; ZEAMX herbicidal rating (ZEAMX (Corn, Field); rate 0.0625 kg/ha): 7.5; ZEAMX herbicidal rating (ZEAMX (Corn, Field); rate 0.1250 kg/ha): 8.0
CCOC(=O)CN1C(=O)C(F)SC1=Nc1cc(-n2c(=O)cc(C(F)(F)F)n(C)c2=O)c(F)cc1Cl (stereo not drawn) [Compound 11, Ethyl 2-{{2-chloro-5-[3,6-dihydro-3-methyl-2,6-dioxo-4-(trifluoromethyl)-1(2H)-pyrimidinyl]-4-fluorophenyl}imino}-5-fluoro-4-oxo-3-thiazolidineacetate]	0.0	1.0	5.5	6.5	9.0	7.5	8.5	8.5	9.0	9.0	0.0	0.0	0.0	0.0	0.0	1.0	4.0	7.0	1.5	1.5	GLXMAW preemergence herbicidal rating ([2]; rate 0.0625 kg/ha): 3.5; GLXMAW preemergence herbicidal rating ([2]; rate 0.1250 kg/ha): 6.0; GLXMAW preemergence herbicidal rating ([2]; rate 0.2500 kg/ha): 8.0; ZEAMX herbicidal rating (ZEAMX (Corn, Field); rate 0.0156 kg/ha): 6.5; ZEAMX herbicidal rating (ZEAMX (Corn, Field); rate 0.0313 kg/ha): 6.5; ZEAMX herbicidal rating (ZEAMX (Corn, Field); rate 0.0625 kg/ha): 7.5; ZEAMX herbicidal rating (ZEAMX (Corn, Field); rate 0.1250 kg/ha): 7.5

— patent US20020137929A1, “1 - (3-heterocyclylphenyl) isothiourea, -isourea, -guanidine and -amidine herbicidal agents” (Intellectual Property Department, BASF Aktiengesellschaft, priority 1998, published 2002)
